“Also recorded” adds a separate entry of the source.
Columns and labels:
[1] = system: Mdm2-ubiquitin conjugates; assay: cell-based Mdm2 ubiquitination assay (HA-ubiquitin immunoprecipitation); design: species or system human; conditions: Mdm2-luciferase cells, with 10 μM MG132
Experimental: To obtain the results shown in FIG. 4A, Mdm2-luciferase cells were transfected with ubiquitin-HA and treated 8 hours later with 10 μg/ml (28 μM) MEL23, 10 μg/ml (31 μM) MEL24, or a DMSO control. After 16 hours, cells were additionally treated with 10 μM MG132 or a DMSO control. After 3 hours, cells were lysed and immunoprecipitated for 3 hours with anti-HA affinity matrix. Total lysates and immunoprecipitated samples were analyzed by Western blotting using anti-Mdm2 antibody. NT indicates a no treatment control. […] After 8 hours, cells were treated with 10 μg/ml (28 μM) MEL23, 10 μg/ml (31 μM) MEL24, or a DMSO control. After 16 hours, cells were additionally treated with 10 μM MG132 or a DMSO control. After 3 hours cells were lysed and analyzed by Western blotting using anti-p53 antibody. […]
The Mdm2-luciferase cell line was transfected with HA-ubiquitin and pre-treated with 10 μg/ml MEL23 or MEL24, followed by 10 μM MG132. […] Cells lysates were immunoprecipitated with an anti-HA antibody and analyzed by Western blotting. […]
Briefly, Mdm2-luciferase cells were transfected with HA-ubiquitin. […] Input lysates and immunoprecipitated samples were analyzed by Western blotting using anti-Mdm2 antibody.
Briefly, Mdm2-luciferase cells were transfected with HA-ubiquitin. […] Input lysates and immunoprecipitated samples were analyzed by Western blotting using anti-Mdm2 antibody. […]

[2] = target: T1, Mdm2(C464A)-luciferase fusion protein (Homo sapiens, UniProt Q00987, C464A); assay: counter screen in control Mdm2(C464A)-luciferase cell line; format: cell-based
T1 construct: Using full-length Mdm2 allowed for the presence of all domains of Mdm2; expressed in transfected cells
Experimental: The Mdm2-luciferase cell line was seeded at 7,500 cells per well, in 384-well white plates (PerkinElmer, Waltham, Mass., Cat. No. 6007688), in 27 μl of media (DMEM with FBS and P/S). Assay plates with cells were incubated at 37° C. overnight to allow cells to adhere. After 24 hours, 2 μl from the ‘mother’ plate (4 mg/ml) was transferred to a ‘daughter plate’ containing 148 μl media in order to dilute the compound 1:75. Next, 3 μl from each well of the ‘daughter plates’ was added to triplicate assay plates for a final concentration of 5.33 μg/ml. Assay plates were incubated at 37° C. for 2 hours. Then the cells were lysed with the addition of 30 μl of luminescence buffer (PerkinElmer, Cat. No. 6016989), and the plates were incubated at room temperature for 30 minutes before being analyzed on a Victor3 Plate Reader (PerkinElmer) for luminescence. Compounds that caused an increase in luminescence greater than 30% were re-ordered for further analysis. […] This was determined by comparing the negative control, no treatment, to the positive control, 10 μM MG132. […]
The above experiments verified that the cell lines could function as a valid system to screen for Mdm2 E3 ligase inhibitors. […] All compounds were incubated with the Mdm2-luciferase cell line for 2 hours, after which relative luminescence was detected by the addition of a luminesence buffer. […]

[3] = system: p53/Mdm2, p53/MdmX or Mdm2/MdmX complex; assay: co-immunoprecipitation of p53/Mdm2/MdmX complexes in MCF7 cells; format: cell-based, human; conditions: 10 μg/ml, 6 hours
Experimental: MCF7 cells were seeded in a 10-cm dish overnight and treated for 6 hours with 10 μg/ml (28 μM) MEL23, 5.3 μg/ml (10 μM) Nutlin-3a or DMSO. […] The experimental conditions of the results shown in FIG. 33B were as follows: FLAG-Mdm2 was transfected into cells and after 24 hours, treated with compounds, and cell lysates were incubated with anti-FLAG M2 antibody for 2 hours, followed by incubation with Protein-A/G sepharose beads for an hour at 4° C. Beads were washed and proteins eluted with 5×SDS and separated on SDS-PAGE.

T1 sequence (Q00987 whole entry C464A, the tested form may be a part): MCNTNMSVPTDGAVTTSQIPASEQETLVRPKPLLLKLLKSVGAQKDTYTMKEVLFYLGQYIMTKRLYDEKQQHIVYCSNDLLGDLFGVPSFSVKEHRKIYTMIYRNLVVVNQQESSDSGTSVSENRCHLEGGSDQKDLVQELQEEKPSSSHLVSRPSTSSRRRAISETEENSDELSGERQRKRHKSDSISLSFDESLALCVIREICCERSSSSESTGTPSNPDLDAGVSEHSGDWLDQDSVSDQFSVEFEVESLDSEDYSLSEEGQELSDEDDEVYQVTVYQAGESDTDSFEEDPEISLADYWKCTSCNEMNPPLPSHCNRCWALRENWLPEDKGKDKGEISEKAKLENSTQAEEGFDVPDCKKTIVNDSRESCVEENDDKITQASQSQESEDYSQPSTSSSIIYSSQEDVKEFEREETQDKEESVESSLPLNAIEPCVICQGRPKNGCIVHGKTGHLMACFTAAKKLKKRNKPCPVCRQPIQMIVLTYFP

SMILES: CCCCn1c(=O)[nH]c(O)c(C2NCCc3c2[nH]c2ccccc32)c1=O (centres unmarked) [MEL23]
- Mdm2 ubiquitination in cells (Mdm2-ubiquitin conjugates) [1]: significantly less Mdm2-ubiquitin conjugates were immunoprecipitated
- luminescence of the control Mdm2(C464A)-luciferase cell line [2]: did not significantly affect
- complex formation (co-immunoprecipitation) [3]: did not inhibit p53-Mdm2 complex formation; also recorded: does not inhibit

SMILES: Cn1c(O)c(C2NCCc3c2[nH]c2ccccc32)c(=O)n(C)c1=O (centres unmarked) [MEL24]
- Mdm2 ubiquitination in cells (Mdm2-ubiquitin conjugates) [1]: significantly less Mdm2-ubiquitin conjugates were immunoprecipitated
- luminescence of the control Mdm2(C464A)-luciferase cell line [2]: did not significantly affect

— patent publication US20120135089A1, “E3 LIGASE INHIBITORS” (priority 2009, published 2012)
